# Measurements taken from patent US10967069B2, “Bio-orthogonal drug activation” (TAGWORKS PHARMACEUTICALS B.V., priority 2011, dated 2021).
# Like-named read-outs stand apart in the source and are kept apart here. Marks after values point to notes of the source that are not given here.
# Columns and labels:
# [1] = Reactivity of tetrazines towards trans-cyclooct-4-ene-1-ol (axial isomer), competition experiment; settings: reference tetrazine 5; acetonitrile/water
# Experimental: A competition experiment was performed to determine the reactivity ratio of a specific tetrazine and 3-(5-acetamido-2-pyridyl)-6-(2-pyridyl)-1,2,4,5-tetrazine (5) (that was chosen as the reference tetrazine), in the inverse-electron demand Diels-Alder reaction with trans-cyclooct-4-ene-1-ol (“minor” isomer with OH in axial position, see: Whitham et al. J. Chem. Soc. (C), 1971, 883-896)).
# To acetonitrile (0.100 mL) was added 5 μL of a solution of the specific tetrazine in DMSO (25 mM) and 5 μL of a solution of the reference tetrazine in DMSO (25 mM). This mixture was diluted with water (0.9 mL), and the absolute amounts of both tetrazines was determined by HPLC-MS/PDA analysis. Subsequently, a solution of trans-cyclooct-4-ene-1-ol (axial isomer) in DMSO (25 μL 2.5 mM) was slowly added, and the mixture was stirred for 5 min. Again, the absolute amounts of both tetrazines was determined by HPLC-MS/PDA analysis, and conversions for both tetrazines was calculated. From these conversions, the reactivity ratio (R=k2,TCO/k2,Ref) of both tetrazines was calculated using the mathematical procedure from Ingold and Shaw (J. Chem. Soc., 1927, 2918-2926).
# [2] = Activation of model prodrugs: reaction with 1,2,4,5-tetrazines and elimination of the model drug (HPLC-MS); settings: for release of 3,5-dimethylaniline: 20 hr
# [3] = Reactivity of tetrazines towards trans-cyclooct-4-ene-1-ol (axial isomer), competition experiment; settings: values marked *: 50:50 mixture of PBS and acetonitrile; reference tetrazine 5
# [4] = Second-order rate constant of trans-cyclooctene derivatives in inverse-electron demand Diels-Alder reaction (UV-visible spectroscopy); settings: UV-visible spectroscopy in acetonitrile at 20° C.
# Experimental: The kinetics of the inverse-electron demand Diels-Alder reaction of a trans-cyclooctene derivative with 3-(5-acetamido-2-pyridyl)-6-(2-pyridyl)-1,2,4,5-tetrazine (5), performed in acetonitrile at 20° C., was determined using UV-visible spectroscopy. A cuvette was filled with acetonitrile (3 mL) and equilibrated at 20° C. 3-(5-Acetamido-2-pyridyl)-6-(2-pyridyl)-1,2,4,5-tetrazine (5, 2.50×10^−7 mol) was added, followed by the trans-cyclooctene derivative (2.50×10^−7 mol). The decay of the absorption at λ=540 nm was monitored, and from this curve the second-order rate constant, k2, was determined assuming second order rate kinetics.
# [5] = test system: A431 squamous carcinoma cells; assay: Cell proliferation assay (MTT)
# Experimental: The cells were plated in 96-well plates (Nunc) at a 2500 cells/well density 24 hr prior to the experiment. Doxorubicin (Dox) and the prodrug minor-38 (1 mM in DMSO) and the tetrazine 7 (10 mM in PBS) were serially diluted in pre-warmed culture medium immediately before the experiment and added to the wells (200 μl final volume per well). The prodrug was either added alone or in combination with 10 μM or 1.5 mol eq. tetrazine 7 (with respect to the prodrug). After 72 hr incubation at 37° C., cell proliferation was assessed by an MTT assay. Briefly, methylthiazolyldiphenyltetrazolium bromide (MTT) was dissolved in PBS at 5 mg/ml, filtered through 0.22 μm and 25 μl was added to each well. After 120 min incubation at 37° C., the medium was gently aspirated. The formed formazan crystals were dissolved in 100 μl DMSO and the absorbance was measured with a plate reader (BMG Labtech) at 560 nm.
# [6] = Reactivity of trans-cyclooctene derivatives, competition experiment; settings: reference trans-cyclooct-4-ene-1-ol (axial isomer)
# Experimental: A competition experiment was performed to determine the reactivity ratio of a specific trans-cyclooctene derivative and trans-cyclooct-4-ene-1-ol (axial isomer) (that was chosen as the reference trans-cyclooctene), in the inverse-electron demand Diels-Alder reaction with bis(2-pyridyl)-1,2,4,5-tetrazine (2).
# This mixture was diluted with water (0.45 mL). Subsequently, a solution of bis(2-pyridyl)-1,2,4,5-tetrazine (2, 6.25×10^−8 mol) in a mixture of acetonitrile (0.05 mL) and water (0.45 mL) was slowly added while stirring vigorously. After addition, the mixture was stirred for an additional 5 min. The conversion of both trans-cyclooctene derivatives was determined by HPLC-MS/PDA analysis, and from these conversions, the reactivity ratio (R=k2,TCO/k2,Ref) of the specific trans-cyclooctene derivative was calculated using the mathematical procedure from Ingold and Shaw (J. Chem. Soc., 1927, 2918-2926).
# [7] = Stability of trans-cyclooctene derivatives in PBS (HPLC-MS); assay type: physicochemical; settings: PBS buffer, 20° C., in the dark, estimation
# Experimental: 10 μL of a solution of the specific trans-cyclooctene derivative in dioxane (25 mM) was diluted with PBS buffer (3 mL), and this solution was stored at 20° C. in the dark. The fate of the TCO compound was monitored by HPLC-MS analysis, and an estimation of the half-life time was made.
# [8] = Hydrolytic stability tests of tetrazines (UV, decrease of absorption at 525 nm); assay type: physicochemical; settings: PBS buffer, 20° C.
# Excerpt: This solution was filtered and, the decrease of the absorption band at 525 nm was monitored using UV spectroscopy.
# [9] = Experimental: (§1) 3-(2-Pyridyl)-6-methyl-1,2,4,5-tetrazine (7, 4.33×10^−6 g; 2.50×10^−8 mol) was dissolved in PBS buffer (1 mL) (c=25 μM). Next, minor-(E)-cyclooct-2-en-1-yl doxorubicin carbamate (38, the isomer with the carbamate in the axial position; 1.74×10^−5 g; 2.50×10^−8 mol) was added. The solution was stirred at 20° C. for 4 hr.
# as §1, with “Next, major-(E)-cyclooct-2-en-1-yl” for “Next, minor-(E)-cyclooct-2-en-1-yl”, “the equatorial” for “the axial”, “for 16” for “for 4”
# 3,6-Bis(2-aminophenyl)-1,2,4,5-tetrazine (9, 2.64×10^−6 g; 1.00×10^−8 mol) was dissolved in acetonitrile (0.1 mL). This mixture was diluted with PBS buffer (0.9 mL). Next, minor-(E)-cyclooct-2-en-1-yl doxorubicin carbamate (38; 6.96×10^−6 g; 1.00×10^−8 mol) was added.
# [10] = with tetrazine 7, c=25 μM, PBS, 20° C., 16 hr
smiles,measurement,setting,value
c1cnc(-c2nnc(-c3cnccn3)nn2)cn1,"Reactivity ratio (R = k2,TZ/k2,Ref)",[1],1.5
"Cc1cc(C)cc(NC(=O)OC2/C=C/CCCCC2)c1 (stereo not drawn) [minor-33, (E)-cyclooct-2-en-1-yl (3,5-dimethylphenyl)carbamate]","release of 3,5-dimethylaniline","[2]; with 3,6-Bis(2-aminophenyl)-1,2,4,5-tetrazine (9), acetonitrile/PBS, 20° C.","release of 3,5-dimethylaniline"
same,"release of 3,5-dimethylaniline","[2]; with 3,6-Bis(4-hydroxyphenyl)-1,2,4,5-tetrazine (11), acetonitrile/PBS, 20° C.","release of 3,5-dimethylaniline"
same,"release of 3,5-dimethylaniline","[2]; with 3,6-Diphenyl-1,2,4,5-tetrazine, acetonitrile/PBS, 20° C.","release of 3,5-dimethylaniline"
same,"release of 3,5-dimethylaniline","[2]; with 3-(2-Pyridyl)-6-methyl-1,2,4,5-tetrazine (7), PBS, 20° C.","release of 3,5-dimethylaniline"
Nc1ccccc1-c1nnc(-c2ccccc2N)nn1,"Reactivity ratio (R = k2,TZ/k2,Ref)",[3],<0.01*
O=C(NCc1ccccc1)OC1/C=C/CCCCC1 (stereo not drawn) [drawing 103],rate contant k2,[4],0.26 M⁻¹ s⁻¹
c1ccc(-c2nnc(-c3ccccc3)nn2)cc1,"Reactivity ratio (R = k2,TZ/k2,Ref)",[3],<0.01*
Fc1ccc(-c2nnc(-c3ccc(F)cn3)nn2)nc1,"Reactivity ratio (R = k2,TZ/k2,Ref)",[1],1.07
"Cc1nnc(-c2ccccn2)nn1 [Tetrazine 7, 3-(2-pyridyl)-6-methyl-1,2,4,5-tetrazine]",IC50,"[5]; Homo sapiens, A-431, 72 h",> 100000 nM
CCCC(=O)Nc1ccc(-c2nnc(-c3ccc(C(F)(F)F)cn3)nn2)nc1,"Reactivity ratio (R = k2,TZ/k2,Ref)",[3],1.84*
Cc1cc(C)cc(NC(=O)OC2/C=C/CCCCC2)c1 (stereo not drawn) [drawing 106],rate contant k2,[4],0.15 M⁻¹ s⁻¹
O=C(NCc1ccccc1)OC1/C=C/CCCCC1 (stereo not drawn) [drawing 104],"reactivity ratio (R = k2,TC0/k2,Ref)",[6],0.067
same,rate contant k2,[4],40 M⁻¹ s⁻¹
CCCC(=O)Nc1ccc(-c2nnc(-c3ncccn3)nn2)nc1,"Reactivity ratio (R = k2,TZ/k2,Ref)",[1],2.7
c1cc(-c2nnc(-c3ccsc3)nn2)cs1,"Reactivity ratio (R = k2,TZ/k2,Ref)",[3],<0.01*
c1cc(-c2nnc(-c3ccncc3)nn2)ccn1,"Reactivity ratio (R = k2,TZ/k2,Ref)",[1],0.83
CC(=O)Nc1ccc(-c2nnc(-c3ccccn3)nn2)nc1,"Reactivity ratio (R = k2,TZ/k2,Ref)",[1],1
CCCC(=O)Nc1ccc(-c2nncnn2)nc1,"Reactivity ratio (R = k2,TZ/k2,Ref)",[1],2.8
CCCC(=O)Nc1ccc(-c2nnc(-c3ccc(F)cn3)nn2)nc1,"Reactivity ratio (R = k2,TZ/k2,Ref)",[1],0.95
Nc1ccc(-c2nnc(-c3ccc(N)cc3)nn2)cc1,"Reactivity ratio (R = k2,TZ/k2,Ref)",[3],<0.01*
CCCC(=O)Nc1ccc(-c2nnc(C)nn2)nc1,"Reactivity ratio (R = k2,TZ/k2,Ref)",[1],0.18
c1c[nH]c(-c2nnc(-c3ccc[nH]3)nn2)c1,"Reactivity ratio (R = k2,TZ/k2,Ref)",[3],<0.01*
OC1CC/C=C/CCC1 (stereo not drawn),"reactivity ratio (R = k2,TC0/k2,Ref)",[6],1
same,rate contant k2,[4],577 M⁻¹ s⁻¹
c1ccc(-c2nnc(-c3ccccn3)nn2)nc1,"Reactivity ratio (R = k2,TZ/k2,Ref)",[1],1.17
"COc1cccc2c1C(=O)c1c(O)c3c(c(O)c1C2=O)C[C@@](O)(C(=O)CO)C[C@@H]3O[C@H]1C[C@H](N)[C@H](O)[C@H](C)O1 [Dox, Doxorubicin, reference compound]",IC50,"[5]; Homo sapiens, A-431, 72 h",20 ± 2 nM
c1cncc(-c2nnc(-c3cccnc3)nn2)c1,"Reactivity ratio (R = k2,TZ/k2,Ref)",[1],0.19
"O=C(NCc1ccccc1)OC1/C=C/CCCCC1 (stereo not drawn) [minor-32, (E)-cyclooct-2-en-1-yl benzylcarbamate]",release of benzylamine,"[2]; with 3,6-Bis(2-aminophenyl)-1,2,4,5-tetrazine (9), DMSO-d6/D2O, 20° C., 24 hr",release of benzylamine
same,release of benzylamine,"[2]; with 3,6-Bis(2-pyridinyl)-1,2,4,5-tetrazine (2), acetonitrile/water, 20° C., 24 hr",release of benzylamine
same,release of benzylamine,"[2]; with 3,6-Bis(4-hydroxyphenyl)-1,2,4,5-tetrazine (11), acetonitrile/water, 20° C., 5 hr",release of benzylamine
same,release of benzylamine,"[2]; with 3,6-Diphenyl-1,2,4,5-tetrazine, general procedure",release of benzylamine
same,release of benzylamine,"[2]; with 6-H-3-(4-Aminomethylphenyl)-1,2,4,5-tetrazine, general procedure",release of benzylamine
same,release of benzylamine,"[2]; with 6-Methyl-3-(4-butanamido-2-pyridinyl)-1,2,4,5-tetrazine, general procedure",release of benzylamine
same,release of benzylamine,"[2]; with 6-Phenyl-3-(3-aminophenyl)-1,2,4,5-tetrazine, general procedure",release of benzylamine
same,release of benzylamine,"[2]; with 6-Phenyl-3-(4-aminophenyl)-1,2,4,5-tetrazine, general procedure",release of benzylamine
c1ccc(-c2nncnn2)nc1,"Reactivity ratio (R = k2,TZ/k2,Ref)",[1],3.06
Cc1nnc(-c2ccccn2)nn1 [drawing 93],"Reactivity ratio (R = k2,TZ/k2,Ref)",[1],0.25
FC(F)(F)c1ccc(-c2nnc(-c3ccc(C(F)(F)F)cn3)nn2)nc1,"Reactivity ratio (R = k2,TZ/k2,Ref)",[3],5.3*
c1csc(-c2nnc(-c3cccs3)nn2)c1,"Reactivity ratio (R = k2,TZ/k2,Ref)",[3],<0.01*
Nc1ccc(-c2nnc(-c3ccccc3)nn2)cc1,"Reactivity ratio (R = k2,TZ/k2,Ref)",[3],<0.01*
COc1cccc2c1C(=O)c1c(O)c3c(c(O)c1C2=O)C[C@@](O)(C(=O)CO)CC3OC1CC(NC(=O)OC2/C=C/CCCCC2)[C@H](O)C(C)O1 (stereo partly drawn),half-life at 83 µM,[7],> 20 days
Nc1cccc(-c2nnc(-c3ccccc3)nn2)c1,"Reactivity ratio (R = k2,TZ/k2,Ref)",[3],<0.01*
c1c[nH]c(-c2nnc(-c3ncc[nH]3)nn2)n1,"Reactivity ratio (R = k2,TZ/k2,Ref)",[1],1.2
CCCCNC(=O)c1ccc(-c2nnc(-c3ncccn3)nn2)nc1,"Reactivity ratio (R = k2,TZ/k2,Ref)",[1],2
same,half-life at 83 µM,[8],25.2 min
O=C1CCCC(=O)N1c1ccc(-c2nnc(-c3ccccn3)nn2)nc1,"Reactivity ratio (R = k2,TZ/k2,Ref)",[1],1.6
Cc1cc(C)cc(NC(=O)OC2/C=C/CCCCC2)c1 (stereo not drawn) [drawing 105],rate contant k2,[4],25.7 M⁻¹ s⁻¹
NCc1ccc(-c2nncnn2)cc1,"Reactivity ratio (R = k2,TZ/k2,Ref)",[1],0.77
"COc1cccc2c1C(=O)c1c(O)c3c(c(O)c1C2=O)C[C@@](O)(C(=O)CO)C[C@@H]3O[C@H]1C[C@H](NC(=O)OC2/C=C/CCCCC2)[C@H](O)[C@H](C)O1 (stereo partly drawn) [minor-38, minor-(E)-cyclooct-2-en-1-yl doxorubicin carbamate]",IC50,"[5]; A431, 72 hr, + tetrazine 7 (10 μM), constant amount",278 ± 22 nM
same,IC50,"[5]; A431, 72 hr, + tetrazine 7 (1.5 eq.), serial dilutions",137 ± 12 nM
same,IC50,"[5]; A431 cell line, 72 hr, MTT, compound alone",3020 ± 486 nM
same,release of doxorubicin (yield),"[9]; with tetrazine 7, c=25 μM, PBS, 20° C., 4 hr",69%
same,release of doxorubicin at lower concentrations,"[9]; with tetrazine 7, concentrations of 2.5 and 1.0 μM",Comparable results
same,release of doxorubicin (yield),"[9]; with tetrazine 9, acetonitrile/PBS, 20° C., 18 hr",90%
"COc1cccc2c1C(=O)c1c(O)c3c(c(O)c1C2=O)C[C@@](O)(C(=O)CO)C[C@@H]3O[C@H]1C[C@H](NC(=O)OC2/C=C/CCCCC2)[C@H](O)[C@H](C)O1 (stereo partly drawn) [major-38, major-(E)-cyclooct-2-en-1-yl doxorubicin carbamate]",conversion of the DA-reaction,[9]; [10],40%
same,release of doxorubicin (yield),[9]; [10],20%
Nc1ccc(-c2nnc(-c3ccccn3)nn2)nc1,"Reactivity ratio (R = k2,TZ/k2,Ref)",[1],0.4
Oc1ccc(-c2nnc(-c3ccc(O)cc3)nn2)cc1,"Reactivity ratio (R = k2,TZ/k2,Ref)",[3],<0.01*
CCCNC(=O)c1ccc(-c2nnc(-c3ccccn3)nn2)nc1,"Reactivity ratio (R = k2,TZ/k2,Ref)",[1],1.76
